Measured values reported in patent US10646492B2, “Heterocyclylamines as PI3K inhibitors” (Incyte Corporation, priority 2011, dated 2020).
pIC50: −log10 of the molar value.

Target: PI3Kδ (p110δ/p85α) (Homo sapiens (Human), UniProt O00329)
Experiment: PI3Kδ scintillation proximity assay (Example A3)
Format: biochemical
Conditions: 20 μM ATP, 4 nM PI3Kδ, read-out: PI3Kδ SPA IC50
Experimental: PI3Kδ (p110δ/p85α) was purchased from Millipore (Bedford, Mass.). ATP, MgCl2, DTT, EDTA, MOPS and CHAPS were purchased from SigmaAldrich (St. Louis, Mo.). Wheat Germ Agglutinin (WGA) YSi SPA Scintillation Beads was purchased from GE healthcare life sciences (Piscataway, N.J.). The kinase reaction was conducted in polystyrene 384-well matrix white plate from Thermo Fisher Scientific in a final volume of 25 μL. Inhibitors were first diluted serially in DMSO and added to the plate wells before the addition of other reaction components. The final concentration of DMSO in the assay was 0.5%. The PI3K assays were carried out at room temperature in 20 mM MOPS, pH 6.7, 10 mM MgCl2, 5 mM DTT and CHAPS 0.03%. Reactions were initiated by the addition of ATP, the final reaction mixture consisted of 20 μM PIP2, 20 μM ATP, 0.2 μCi [γ-^33P]ATP, 4 nM PI3Kδ. […] 25 mM EDTA, 400 μM ATP. The final concentration of SPA beads was 1.0 mg/mL. […] IC50 determination was performed by fitting the curve of percent control activity versus the log of the inhibitor concentration using the GraphPad Prism 3.0 software.

PI3Kδ (p110δ/p85α), sequence (O00329 whole entry): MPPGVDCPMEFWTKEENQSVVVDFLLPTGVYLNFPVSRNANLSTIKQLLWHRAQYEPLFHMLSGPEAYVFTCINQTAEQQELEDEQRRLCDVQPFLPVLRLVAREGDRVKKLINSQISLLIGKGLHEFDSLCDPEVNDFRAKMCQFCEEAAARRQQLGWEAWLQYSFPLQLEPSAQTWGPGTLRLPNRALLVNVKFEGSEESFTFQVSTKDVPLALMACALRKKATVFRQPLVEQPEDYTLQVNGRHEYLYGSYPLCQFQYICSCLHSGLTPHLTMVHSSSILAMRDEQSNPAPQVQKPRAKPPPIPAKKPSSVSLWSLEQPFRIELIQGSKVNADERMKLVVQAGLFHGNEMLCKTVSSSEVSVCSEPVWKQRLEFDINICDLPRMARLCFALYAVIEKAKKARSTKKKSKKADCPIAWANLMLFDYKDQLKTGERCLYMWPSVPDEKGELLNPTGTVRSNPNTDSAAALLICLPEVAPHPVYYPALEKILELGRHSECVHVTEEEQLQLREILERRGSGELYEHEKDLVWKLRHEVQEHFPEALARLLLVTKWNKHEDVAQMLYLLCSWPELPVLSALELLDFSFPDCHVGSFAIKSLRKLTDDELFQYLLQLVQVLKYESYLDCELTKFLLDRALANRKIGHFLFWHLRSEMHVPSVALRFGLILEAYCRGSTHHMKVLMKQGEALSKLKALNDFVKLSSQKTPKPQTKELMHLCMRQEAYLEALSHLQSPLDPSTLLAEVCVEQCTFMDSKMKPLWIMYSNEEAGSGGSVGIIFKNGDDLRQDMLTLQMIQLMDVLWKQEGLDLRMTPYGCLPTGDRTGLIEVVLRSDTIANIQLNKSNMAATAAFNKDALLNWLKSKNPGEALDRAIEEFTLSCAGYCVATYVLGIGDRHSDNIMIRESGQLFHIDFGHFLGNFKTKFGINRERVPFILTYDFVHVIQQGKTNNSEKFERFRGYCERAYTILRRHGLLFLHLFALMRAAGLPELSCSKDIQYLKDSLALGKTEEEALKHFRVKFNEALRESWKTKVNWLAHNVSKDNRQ
PI3Kδ (p110δ/p85α), sequence (P27986 whole entry partner): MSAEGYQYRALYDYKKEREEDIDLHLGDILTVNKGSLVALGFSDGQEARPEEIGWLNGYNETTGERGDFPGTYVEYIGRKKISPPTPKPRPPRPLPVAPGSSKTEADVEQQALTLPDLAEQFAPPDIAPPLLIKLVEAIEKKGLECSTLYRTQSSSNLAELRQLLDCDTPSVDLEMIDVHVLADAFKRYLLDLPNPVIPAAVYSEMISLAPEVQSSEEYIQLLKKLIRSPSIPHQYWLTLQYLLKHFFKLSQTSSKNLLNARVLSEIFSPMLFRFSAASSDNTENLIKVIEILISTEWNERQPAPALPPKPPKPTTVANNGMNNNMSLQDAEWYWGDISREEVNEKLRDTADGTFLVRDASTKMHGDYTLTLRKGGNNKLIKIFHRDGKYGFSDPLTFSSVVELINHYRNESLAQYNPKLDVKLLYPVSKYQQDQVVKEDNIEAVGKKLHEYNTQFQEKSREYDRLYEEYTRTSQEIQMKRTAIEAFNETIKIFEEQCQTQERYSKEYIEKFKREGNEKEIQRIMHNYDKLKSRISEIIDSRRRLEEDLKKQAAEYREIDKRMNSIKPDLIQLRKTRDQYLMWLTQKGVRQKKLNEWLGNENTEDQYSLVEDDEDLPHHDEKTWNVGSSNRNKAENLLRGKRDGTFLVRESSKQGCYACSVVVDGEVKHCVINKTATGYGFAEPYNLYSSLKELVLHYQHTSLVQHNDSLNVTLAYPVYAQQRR

pIC50: > 8.00
Structure (SMILES): CCOc1c(C(C)n2nc(C)c3c(N)ncnc32)cc(Cl)c(C#N)c1-c1ccc(C(=O)NC)nc1 (stereo not shown) [Example 333, 5-{3-[1-(4-amino-3-methyl-1H-pyrazolo[3,4-d]pyrimidin-1-yl)ethyl]-5-chloro-6-cyano-2-ethoxyphenyl}-N-methylpyridine-2-carboxamide]
